Marks after values point to notes of the source that are not given here.
Tested on: daptomycin-susceptible, dose-dependent Enterococcus faecium (NTUH664)
Experiment: Rat infective endocarditis model, DSE;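 note: male Wistar rats with catheter-induced aortic valve endocarditis, dosed for 3 days, CFU counted in vegetation and blood, saline-treated infected controls, vegetation detection limit 2 log10 CFU/g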
Conditions: for Bacterial load in blood / Rate of sterile vegetation / Bacterial load of vegetation: Wistar rat IE, DSE MIC 0.5 mg/L; for Bacterial load in blood / Bacterial load of vegetation: mean (SD); for Bacterial load in blood / Rate of sterile vegetation: n = 3; for Bacterial load of vegetation: sacrifice 24 h after last dose, n = 3, detection limit 2 log10 CFU/g; for veg_sterile: flag 1/0
[1] = DSE MIC 0.5, delay 24 h, 12 mg/kg iv, rat 1 of 3 (row order)
[2] = DSE MIC 0.5, delay 24 h, 12 mg/kg iv, rat 2 of 3 (row order)
[3] = DSE MIC 0.5, delay 24 h, 12 mg/kg iv, rat 3 of 3 (row order)
[4] = DSE MIC 0.5, delay 24 h, 45 mg/kg sc, rat 1 of 3 (row order)
[5] = DSE MIC 0.5, delay 24 h, 45 mg/kg sc, rat 2 of 3 (row order)
[6] = DSE MIC 0.5, delay 24 h, 45 mg/kg sc, rat 3 of 3 (row order)
[7] = DSE MIC 0.5, delay 24 h, 90 mg/kg sc, rat 1 of 3 (row order)
[8] = DSE MIC 0.5, delay 24 h, 90 mg/kg sc, rat 2 of 3 (row order)
[9] = DSE MIC 0.5, delay 24 h, 90 mg/kg sc, rat 3 of 3 (row order)
[10] = DSE MIC 0.5, delay 48 h, 12 mg/kg iv, rat 1 of 3 (row order)
[11] = DSE MIC 0.5, delay 48 h, 12 mg/kg iv, rat 2 of 3 (row order)
[12] = DSE MIC 0.5, delay 48 h, 12 mg/kg iv, rat 3 of 3 (row order)
[13] = DSE MIC 0.5, delay 48 h, 45 mg/kg sc, rat 1 of 3 (row order)
[14] = DSE MIC 0.5, delay 48 h, 45 mg/kg sc, rat 2 of 3 (row order)
[15] = DSE MIC 0.5, delay 48 h, 45 mg/kg sc, rat 3 of 3 (row order)
[16] = DSE MIC 0.5, delay 48 h, 90 mg/kg sc, rat 1 of 3 (row order)
[17] = DSE MIC 0.5, delay 48 h, 90 mg/kg sc, rat 2 of 3 (row order)
[18] = DSE MIC 0.5, delay 48 h, 90 mg/kg sc, rat 3 of 3 (row order)
[19] = 48 h from inoculation to treatment, 12 mg/kg/day i.v. 3 days, SD
[20] = 48 h from inoculation to treatment, 45 mg/kg/day s.c. 3 days, SD

Protocol: Approval for animal use was obtained from the National Taiwan University Institutional Animal Care and Use Committee before the commencement of the experiments. Endocarditis was induced in male Wistar rats weighing ~330 g by using previously developed methodologies with slight modifications ([46]). To expose the right carotid artery for the placement of an intravascular catheter, the animals were anesthetized with 1 μL/g of Zoletil 50 (1 mg/mL) plus Rompun (23.32 mg/mL). A sterile polyethylene catheter (Intramedic PE-10; Clay Adams, Parsippany, NJ, USA) was inserted through a small incision and advanced 4 cm into the left ventricle. The catheter was ligated and left in place for the duration of the experiment. 24 h after the catheter was placed across the aortic valve, the bacterial inoculum, which was presuspended in saline, and 1 mL of 10^8 CFU/mL of VRE were administered intravenously via the tail vein. We evaluated the actual inoculum based on the CFU count. The rats received antibiotic treatment at 24 h or 48 h after the bacterial inoculation.
The animals were treated for 3 days. A group of infected but phosphate-buffered saline-treated rats was used as a control. 24 h after the last treatment, the animals were sacrificed via anesthetic overdose. The aortic valve vegetation and 1 mL of blood were obtained aseptically from the sacrificed animals, weighed, and homogenized in 1 mL of phosphate-buffered saline. Serial dilutions of homogenized tissues were performed, and 100 μL of each dilution, including the undiluted sample, were plated on brain heart infusion agar to enumerate the bacteria. The animals were included in the final analysis only if they survived the entire therapy and if their catheters were found across the aortic valve in the left ventricle. The detection limit of the bacterial load of vegetation was 2 log10 CFU/g.

## CCCCCCCCCC(=O)N[C@@H](Cc1c[nH]c2ccccc12)C(=O)N[C@H](CC(N)=O)C(=O)N[C@@H](CC(=O)O)C(=O)N[C@@H]1C(=O)NCC(=O)N[C@@H](CCCN)C(=O)N[C@@H](CC(=O)O)C(=O)N[C@H](C)C(=O)N[C@@H](CC(=O)O)C(=O)NCC(=O)N[C@H](CO)C(=O)N[C@@H]([C@H](C)CC(=O)O)C(=O)N[C@@H](CC(=O)c2ccccc2N)C(=O)O[C@@H]1C [daptomycin, Daptomycin]
[1]
  blood_cfu: 0
  log_blood_cfu: 0
  log_veg_cfu: 0
  veg_cfu: 0
[2]
  blood_cfu: 0
  log_blood_cfu: 0
  log_veg_cfu: 0
  veg_cfu: 0
  veg_sterile: 1
[3]
  blood_cfu: 0
  log_blood_cfu: 0
  log_veg_cfu: 0
  veg_cfu: 0
  veg_sterile: 1
[4]
  blood_cfu: 0
  log_blood_cfu: 0
  log_veg_cfu: 0
  veg_cfu: 0
  veg_sterile: 1
[5]
  blood_cfu: 0
  log_blood_cfu: 0
  log_veg_cfu: 0
  veg_cfu: 0
  veg_sterile: 1
[6]
  blood_cfu: 0
  log_blood_cfu: 0
  log_veg_cfu: 0
  veg_cfu: 0
  veg_sterile: 1
[7]
  blood_cfu: 0
  log_blood_cfu: 0
  log_veg_cfu: 0
  veg_cfu: 0
  veg_sterile: 1
[8]
  blood_cfu: 0
  log_blood_cfu: 0
  log_veg_cfu: 0
  veg_cfu: 0
  veg_sterile: 1
[9]
  blood_cfu: 0
  log_blood_cfu: 0
  log_veg_cfu: 0
  veg_cfu: 0
  veg_sterile: 1
[10]
  blood_cfu: 0
  log_blood_cfu: 0
  log_veg_cfu: 3.4
  veg_cfu: 2500
  veg_sterile: 0
[11]
  blood_cfu: 0
  log_blood_cfu: 0
  log_veg_cfu: 3.26
  veg_cfu: 1800
  veg_sterile: 0
[12]
  blood_cfu: 0
  log_blood_cfu: 0
  log_veg_cfu: 3.17
  veg_cfu: 1480
  veg_sterile: 0
[13]
  blood_cfu: 0
  log_blood_cfu: 0
  log_veg_cfu: 4.66
  veg_cfu: 45600
  veg_sterile: 0
[14]
  blood_cfu: 0
  log_blood_cfu: 0
  log_veg_cfu: 4.38
  veg_cfu: 23900
  veg_sterile: 0
[15]
  blood_cfu: 0
  log_blood_cfu: 0
  log_veg_cfu: 0
  veg_cfu: 0
  veg_sterile: 1
[16]
  blood_cfu: 0
  log_blood_cfu: 0
  log_veg_cfu: 0
  veg_cfu: 0
  veg_sterile: 1
[17]
  blood_cfu: 0
  log_blood_cfu: 0
  log_veg_cfu: 0
  veg_cfu: 0
  veg_sterile: 1
[18]
  blood_cfu: 0
  log_blood_cfu: 0
  log_veg_cfu: 0
  veg_cfu: 0
  veg_sterile: 1
24 h from inoculation to treatment, 12 mg/kg/day i.v. 3 days, SD
  Bacterial load in blood: 0 (0) log10 CFU/mL
24 h from inoculation to treatment, 12 mg/kg/day i.v. 3 days
  Rate of sterile vegetation: 100
24 h from inoculation to treatment, 45 mg/kg/day s.c. 3 days, SD
  Bacterial load in blood: 0 (0) log10 CFU/mL
24 h from inoculation to treatment, 45 mg/kg/day s.c. 3 days
  Rate of sterile vegetation: 100
24 h from inoculation to treatment, 90 mg/kg/day s.c. 3 days, SD
  Bacterial load in blood: 0 (0) log10 CFU/mL
24 h from inoculation to treatment, 90 mg/kg/day s.c. 3 days
  Rate of sterile vegetation: 100
[19]
  Bacterial load in blood: 0 (0) log10 CFU/mL
  Bacterial load of vegetation: 3.27 (0.11) log10 CFU/g
48 h from inoculation to treatment, 12 mg/kg/day i.v. 3 days
  Rate of sterile vegetation: 0
[20]
  Bacterial load in blood: 0 (0) log10 CFU/mL
  Bacterial load of vegetation: 4.75 (0.42)^g log10 CFU/g
48 h from inoculation to treatment, 45 mg/kg/day s.c. 3 days
  Rate of sterile vegetation: 0
48 h from inoculation to treatment, 90 mg/kg/day s.c. 3 days, SD
  Bacterial load in blood: 0 (0) log10 CFU/mL
48 h from inoculation to treatment, 90 mg/kg/day s.c. 3 days
  Rate of sterile vegetation: 100
48 h from inoculation to treatment, 90 mg/kg/day s.c. 3 days, 90 mg/kg/day
  Bacterial load of vegetation: 0 log10 CFU/g
48 h from inoculation to treatment, 90 mg/kg/day s.c. 3 days, 90 mg/kg/day, SD
  Bacterial load of vegetation: 0 (0)^h^,^i log10 CFU/g

— article PMC9603373 (Microbiology Spectrum, 2022)
